This note sets out measurements from US9809697B2, “Crosslinking agent, crosslinked polymer, and compound” (THE NIPPON SYNTHETIC CHEMICAL INDUSTRY CO., LTD., priority 2013, dated 2017).

The data set is described as follows: Solubility in water. Type of data set: physicochemical. Particulars: solubility in 100 g of water at 23° C. The method, then: The white solid obtained above was examined for solubility in 100 g of water at 23° C.

Turning to `NNC(=O)CCCCC(=O)NN` [ADH, adipic acid dihydrazide], the “Crosslinking agent Solubility” value is recorded as 12.5 g.

Take `CN(N)C(=O)CCCCC(=O)N(C)N` [formula (4)]: the “Crosslinking agent Solubility” value is reported as 150 g.
